According to article PMC7029851, “Antibacterial activity of novel dual bacterial DNA type II topoisomerase inhibitors” (PLoS ONE, 2020):
In brackets after ≈: the same amount, converted by molar mass. Several values for one entry are separate records, joined by “and”; a condition that tells them apart may be missing. Equal values may be shown once. Read-outs that look alike come from different tables or passages of the source.

Key:
S. aureus ATCC 29213 = test: MIC, broth microdilution; format: cell-based, Staphylococcus aureus; conditions: for MIC: Staphylococcus aureus
Experimental: (§1) MICs were determined by the broth microdilution method (the agar dilution method was used only for N. gonorrhoeae) according to CLSI guidelines.

S. aureus DNA gyrase = target: T1, S. aureus DNA gyrase (Staphylococcus aureus, UniProt P20831); test: S. aureus DNA gyrase supercoiling gel assay; format: biochemical
T1 construct: purchased Inspiralis (Norwich, UK)
Experimental: (§2) S. aureus and E. coli DNA gyrase supercoiling and topo IV decatenation assay kits, as well as human topoisomerase II decatenation assay kits, were provided by Inspiralis (Norwich, UK). Assays were performed according to the manufacturer’s instructions. The compounds were serially diluted (1:3 dilutions starting from a 300 μM final concentration) and assayed in a reaction mixture to obtain concentration-response curves in two different replicate experiments. The final concentration of DMSO in the assays was 1% (v/v). The reactions were terminated by the addition of 30 μl chloroform/isoamyl alcohol (26:1) and 30 μl Stop Dye (40% sucrose, 100 mM Tris HCl pH 7.5, 1 mM EDTA, 0.5 μg/ml bromophenol blue), after which the samples were loaded onto a 1.0% TAE ([…]) gel that was then run at 80 V for 2 hours. DNA bands were visualized by ethidium bromide staining the gel for 10 minutes, which was then destained for 10 minutes in water and analysed using gel documentation equipment (Syngene, Cambridge, UK). The DNA in each band was quantitated using Syngene Gene Tools software. Raw gel data (fluorescent band volumes) were converted by the software to percentages of the control (the fully supercoiled or decatenated DNA band). […] The global curve fit non-linear regression tool was used to calculate the IC50 values. The results are expressed as the average values obtained after calculating the IC50 from each replicate run.

[1] = system: N. gonorrhoeae clinical isolates (n = 38); test: microbe, parasite or virus in culture; format: cell-based, Neisseria gonorrhoeae; conditions: for MIC50 / MIC90: Neisseria gonorrhoeae
Experimental: (§3) The bacterial reference strains used in this study were purchased from ATCC (American Type Culture Collection) via LGC Standards (Middlesex, UK). […] Clinical MDR isolates were provided by Aptuit, the IHMA Europa Sàrl repository (Epalinges, Switzerland) and the Statens Serum Institute (Copenhagen, Denmark).
as §1
(§4) The results obtained using clinical isolates are reported as MIC50 and MIC90 values.

[2] = system: E. faecalis clinical isolates (n = 12) vanA (6)/vanB (6); test: MIC, multidrug-resistant clinical isolates; format: cell-based; conditions: Enterococcus faecalis; for MIC: read-out: MIC range
Experimental: as §3, §1, §4

[3] = system: E. faecium clinical isolates (n = 12) vanA (6)/vanB (6); test: MIC, multidrug-resistant clinical isolates; format: cell-based; conditions: Enterococcus faecium; for MIC: read-out: MIC range
Experimental: as §3, §1, §4

S. aureus BAA-1720 = test: MIC, broth microdilution; format: cell-based; conditions: Staphylococcus aureus, BAA1720; S. aureus BAA-1720, ciprofloxacin-resistant
Experimental: as §1

P. aeruginosa ATCC 27853 = test: MIC, broth microdilution; format: cell-based; conditions: Pseudomonas aeruginosa, ATCC27853; P. aeruginosa ATCC 27853, ciprofloxacin-susceptible
Experimental: as §1

H. influenzae ATCC 49766 = test: MIC, broth microdilution; format: cell-based; conditions: Haemophilus influenzae, ATCC49766; H. influenzae ATCC 49766, ciprofloxacin-susceptible
Experimental: as §1

E. coli ATCC 25922 = test: MIC, broth microdilution; format: cell-based; conditions: Escherichia coli, ATCC25922; E. coli ATCC 25922, ciprofloxacin-susceptible
Experimental: as §1

E. coli 4SI = test: MIC, broth microdilution; format: cell-based; conditions: Escherichia coli, ciprofloxacin-resistant
Experimental: as §1

[4] = system: K. pneumoniae ATCC 700603; test: MIC, broth microdilution; format: cell-based; conditions: Klebsiella pneumoniae, ATCC700603; K. pneumoniae ATCC 700603, ciprofloxacin-susceptible
Experimental: as §1

E. faecalis ATCC 29212 = test: MIC, broth microdilution; format: cell-based; conditions: Enterococcus faecalis, ATCC29212; E. faecalis ATCC 29212, ciprofloxacin-susceptible
Experimental: as §1

S. pneumoniae ATCC 49619 = test: MIC, broth microdilution; format: cell-based; conditions: Streptococcus pneumoniae, ATCC49619; S. pneumoniae ATCC 49619, ciprofloxacin-susceptible
Experimental: as §1

[5] = target: T2, S. aureus Topoisomerase IV (Staphylococcus aureus, UniProt P0C1U9); test: S. aureus topoisomerase IV decatenation gel assay; format: biochemical
T2 construct: purchased Inspiralis (Norwich, UK)
Experimental: as §2

E. coli Topoisomerase IV = target: T3, E. coli Topoisomerase IV (Escherichia coli, UniProt P0AFI2); test: E. coli topoisomerase IV decatenation gel assay; format: biochemical
T3 construct: purchased Inspiralis (Norwich, UK)
Experimental: as §2

Human Topoisomerase II = target: T4, Human Topoisomerase II (Homo sapiens, UniProt P11388); test: Human topoisomerase II decatenation gel assay; format: biochemical
T4 construct: purchased Inspiralis (Norwich, UK)
Experimental: as §2

[6] = system: N. gonorrhoeae ATCC 49226; test: MIC, agar dilution; format: cell-based; conditions: Neisseria gonorrhoeae, ATCC49226; N. gonorrhoeae ATCC 49226, ciprofloxacin-susceptible
Experimental: as §1

N. gonorrhoeae WHO N = test: MIC, agar dilution; format: cell-based; conditions: Neisseria gonorrhoeae, ciprofloxacin-resistant
Experimental: as §1

N. gonorrhoeae WHO K = test: MIC, agar dilution; format: cell-based; conditions: Neisseria gonorrhoeae, ciprofloxacin-resistant
Experimental: as §1

[7] = system: N. gonorrhoeae ATCC 19424; test: MIC, agar dilution; format: cell-based; conditions: Neisseria gonorrhoeae, ATCC19424; N. gonorrhoeae ATCC 19424, ciprofloxacin-susceptible
Experimental: as §1

N. gonorrhoeae WHO L = test: MIC, agar dilution; format: cell-based; conditions: Neisseria gonorrhoeae, ciprofloxacin-resistant
Experimental: as §1

E. coli TolC- mutant = test: microbe, parasite or virus in culture; format: cell-based; conditions: Escherichia coli
Experimental: as §3, §1

E. coli DNA gyrase = target: T5, E. coli DNA gyrase (Escherichia coli, UniProt P0AES4); test: E. coli DNA gyrase supercoiling gel assay; format: biochemical
T5 construct: purchased Inspiralis (Norwich, UK)
Experimental: as §2

[8] = ATCC29213, S. aureus ATCC 29213, ciprofloxacin-susceptible
[9] = replicate Assay 1, read-out: IC50 S.aureus gyrase Supercoiling, Assay 1
[10] = replicate Assay 2, read-out: IC50 S.aureus gyrase Supercoiling, Assay 2
[11] = replicate Assay 1, read-out: IC50 S. aureus Topoisomerase IV decatenation, Assay 1
[12] = replicate Assay 2, read-out: IC50 S. aureus Topoisomerase IV decatenation, Assay 2
[13] = average of two replicate experiments, read-out: IC50 Human Topoisomerase II decatenation (average)
[14] = replicate Assay 1, read-out: IC50 Human Topoisomerase II (TopoII) decatenation, Assay 1
[15] = replicate Assay 2, read-out: IC50 Human Topoisomerase II (TopoII) decatenation, Assay 2

T2 sequence (P0C1S7 whole entry): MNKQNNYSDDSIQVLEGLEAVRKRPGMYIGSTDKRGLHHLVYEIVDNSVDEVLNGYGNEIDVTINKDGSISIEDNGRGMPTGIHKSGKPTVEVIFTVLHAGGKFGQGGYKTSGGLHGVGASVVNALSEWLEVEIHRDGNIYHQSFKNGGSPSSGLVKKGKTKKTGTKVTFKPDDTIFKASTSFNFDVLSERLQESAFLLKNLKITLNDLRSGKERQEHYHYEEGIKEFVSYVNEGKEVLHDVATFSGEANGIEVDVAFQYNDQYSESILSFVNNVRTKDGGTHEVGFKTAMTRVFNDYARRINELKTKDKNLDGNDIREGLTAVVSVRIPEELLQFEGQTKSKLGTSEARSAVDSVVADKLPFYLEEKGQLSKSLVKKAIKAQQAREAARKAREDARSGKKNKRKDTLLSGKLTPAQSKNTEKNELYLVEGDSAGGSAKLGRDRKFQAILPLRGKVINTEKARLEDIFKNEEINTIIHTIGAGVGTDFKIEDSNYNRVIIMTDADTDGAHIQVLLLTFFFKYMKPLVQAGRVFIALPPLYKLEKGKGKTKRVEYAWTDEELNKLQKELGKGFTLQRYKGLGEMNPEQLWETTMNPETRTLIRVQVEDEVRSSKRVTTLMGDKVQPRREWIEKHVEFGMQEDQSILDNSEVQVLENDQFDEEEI
T2 sequence (P0C1U9 whole entry): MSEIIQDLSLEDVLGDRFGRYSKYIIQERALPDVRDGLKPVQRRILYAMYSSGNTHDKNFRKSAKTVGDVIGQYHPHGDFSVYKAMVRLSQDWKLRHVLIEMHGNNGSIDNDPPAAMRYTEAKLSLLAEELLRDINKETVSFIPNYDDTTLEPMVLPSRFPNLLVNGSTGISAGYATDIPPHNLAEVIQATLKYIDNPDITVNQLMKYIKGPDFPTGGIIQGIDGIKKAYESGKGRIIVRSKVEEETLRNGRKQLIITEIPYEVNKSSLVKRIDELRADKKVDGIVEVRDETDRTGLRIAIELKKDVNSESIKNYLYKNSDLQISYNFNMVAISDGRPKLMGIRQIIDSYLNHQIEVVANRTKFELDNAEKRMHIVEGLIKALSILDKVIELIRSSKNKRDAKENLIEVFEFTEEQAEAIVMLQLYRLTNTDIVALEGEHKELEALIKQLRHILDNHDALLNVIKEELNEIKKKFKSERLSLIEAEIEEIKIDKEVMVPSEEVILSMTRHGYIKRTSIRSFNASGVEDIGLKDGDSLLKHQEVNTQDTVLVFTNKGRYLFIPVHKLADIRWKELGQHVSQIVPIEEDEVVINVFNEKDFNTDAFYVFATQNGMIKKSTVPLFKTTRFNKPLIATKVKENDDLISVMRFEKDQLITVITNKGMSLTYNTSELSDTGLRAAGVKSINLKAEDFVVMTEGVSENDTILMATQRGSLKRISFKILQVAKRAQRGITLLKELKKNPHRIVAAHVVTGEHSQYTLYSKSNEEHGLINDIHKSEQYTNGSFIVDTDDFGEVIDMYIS
T4 sequence (P11388 whole entry): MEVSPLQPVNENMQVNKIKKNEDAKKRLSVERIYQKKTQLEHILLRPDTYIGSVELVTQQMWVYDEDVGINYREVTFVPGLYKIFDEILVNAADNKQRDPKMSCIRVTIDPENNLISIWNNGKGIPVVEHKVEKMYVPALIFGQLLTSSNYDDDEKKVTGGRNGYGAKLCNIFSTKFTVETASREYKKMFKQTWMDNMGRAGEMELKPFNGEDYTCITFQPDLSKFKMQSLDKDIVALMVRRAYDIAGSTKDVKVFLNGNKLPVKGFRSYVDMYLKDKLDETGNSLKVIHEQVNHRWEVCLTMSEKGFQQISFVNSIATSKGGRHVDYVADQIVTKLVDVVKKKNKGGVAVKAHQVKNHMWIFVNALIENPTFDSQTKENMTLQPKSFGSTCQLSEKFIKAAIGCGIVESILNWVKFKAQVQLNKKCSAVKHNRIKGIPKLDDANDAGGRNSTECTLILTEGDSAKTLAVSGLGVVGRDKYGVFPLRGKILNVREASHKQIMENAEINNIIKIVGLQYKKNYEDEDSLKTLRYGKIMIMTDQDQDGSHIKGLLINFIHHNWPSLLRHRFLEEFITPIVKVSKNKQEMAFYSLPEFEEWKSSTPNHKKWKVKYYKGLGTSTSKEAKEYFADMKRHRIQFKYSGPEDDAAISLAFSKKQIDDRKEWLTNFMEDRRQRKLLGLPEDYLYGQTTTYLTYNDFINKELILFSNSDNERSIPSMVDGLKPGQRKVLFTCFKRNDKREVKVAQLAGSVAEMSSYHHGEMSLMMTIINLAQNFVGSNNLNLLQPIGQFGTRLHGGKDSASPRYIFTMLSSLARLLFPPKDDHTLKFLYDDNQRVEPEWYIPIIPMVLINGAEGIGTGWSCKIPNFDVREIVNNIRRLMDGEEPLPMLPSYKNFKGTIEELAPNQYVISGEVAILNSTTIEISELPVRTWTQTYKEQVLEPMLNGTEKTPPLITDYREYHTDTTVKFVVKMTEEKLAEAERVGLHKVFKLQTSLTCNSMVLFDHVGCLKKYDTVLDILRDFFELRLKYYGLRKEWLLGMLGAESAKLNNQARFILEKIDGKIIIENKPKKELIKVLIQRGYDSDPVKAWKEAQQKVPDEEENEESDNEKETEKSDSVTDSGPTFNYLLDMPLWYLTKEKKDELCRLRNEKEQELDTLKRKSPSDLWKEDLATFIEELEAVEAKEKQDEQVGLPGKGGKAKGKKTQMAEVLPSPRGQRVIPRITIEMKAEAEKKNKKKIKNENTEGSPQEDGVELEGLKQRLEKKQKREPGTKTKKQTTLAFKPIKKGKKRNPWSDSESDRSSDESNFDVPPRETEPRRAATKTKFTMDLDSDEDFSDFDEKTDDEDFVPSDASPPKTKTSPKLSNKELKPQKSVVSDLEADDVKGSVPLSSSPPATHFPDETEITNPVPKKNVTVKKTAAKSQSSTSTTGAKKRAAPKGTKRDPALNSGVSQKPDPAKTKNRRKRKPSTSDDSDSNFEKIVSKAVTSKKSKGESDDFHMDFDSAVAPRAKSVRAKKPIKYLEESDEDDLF
T3 sequence (P20083 whole entry): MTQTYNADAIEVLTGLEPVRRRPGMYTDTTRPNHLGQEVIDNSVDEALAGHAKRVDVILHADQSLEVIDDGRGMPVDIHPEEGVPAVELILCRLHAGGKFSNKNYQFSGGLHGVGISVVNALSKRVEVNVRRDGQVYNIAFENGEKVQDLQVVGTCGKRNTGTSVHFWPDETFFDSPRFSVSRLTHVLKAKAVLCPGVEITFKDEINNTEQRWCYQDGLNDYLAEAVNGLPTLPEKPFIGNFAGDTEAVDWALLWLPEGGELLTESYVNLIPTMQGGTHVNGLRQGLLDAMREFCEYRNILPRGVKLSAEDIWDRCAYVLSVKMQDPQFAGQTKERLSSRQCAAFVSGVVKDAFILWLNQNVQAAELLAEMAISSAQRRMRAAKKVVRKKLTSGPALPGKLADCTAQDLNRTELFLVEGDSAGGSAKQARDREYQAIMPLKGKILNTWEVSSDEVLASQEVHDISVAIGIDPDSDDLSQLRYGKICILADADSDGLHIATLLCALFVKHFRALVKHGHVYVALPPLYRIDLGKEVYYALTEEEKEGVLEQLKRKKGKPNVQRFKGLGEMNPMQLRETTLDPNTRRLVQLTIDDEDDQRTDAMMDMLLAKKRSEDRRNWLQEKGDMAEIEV
T3 sequence (P0AFI2 whole entry): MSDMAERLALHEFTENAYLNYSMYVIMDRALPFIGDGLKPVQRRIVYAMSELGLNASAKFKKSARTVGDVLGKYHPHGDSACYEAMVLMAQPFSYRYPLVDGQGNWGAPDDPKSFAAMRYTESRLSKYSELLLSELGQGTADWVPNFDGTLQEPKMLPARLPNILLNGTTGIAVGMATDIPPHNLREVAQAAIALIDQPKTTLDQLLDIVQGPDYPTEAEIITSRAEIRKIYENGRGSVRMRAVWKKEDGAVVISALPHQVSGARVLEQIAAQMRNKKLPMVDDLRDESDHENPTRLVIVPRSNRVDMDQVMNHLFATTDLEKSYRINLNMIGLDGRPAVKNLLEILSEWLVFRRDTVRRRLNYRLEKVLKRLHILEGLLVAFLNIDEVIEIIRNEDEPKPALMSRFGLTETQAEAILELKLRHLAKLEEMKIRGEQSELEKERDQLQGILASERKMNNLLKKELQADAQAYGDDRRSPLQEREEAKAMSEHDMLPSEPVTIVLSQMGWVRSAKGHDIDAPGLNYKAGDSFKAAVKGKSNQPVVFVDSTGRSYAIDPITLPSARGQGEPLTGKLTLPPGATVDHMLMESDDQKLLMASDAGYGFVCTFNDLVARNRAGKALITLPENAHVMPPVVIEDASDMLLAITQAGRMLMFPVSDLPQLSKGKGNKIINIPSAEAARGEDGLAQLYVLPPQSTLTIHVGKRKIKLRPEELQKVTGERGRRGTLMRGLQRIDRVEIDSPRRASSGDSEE

## O=C1COc2ncc(F)cc2N1[C@H]1CC[C@H](NCc2cc3c(=O)oc4ccc(F)cc4c3[nH]2)CC1 [Compound 1, 8-fluoro-2-({[trans-4-(7-fluoro-2-oxo-2,3-dihydro-1H-pyrido[2,3-b][1,4]oxazin-1-yl)cyclohexyl]amino}methyl)[1]benzopyrano[4,3-b]pyrrol-4(1H)-one]
S. aureus ATCC 29213; [8]
  MIC: 0.25 µg/mL (≈ 0.52 µM)
S. aureus ATCC 29213; ATCC29213, S. aureus ATCC29213, ref strain, S4 File
  MIC: 0.25 µg/mL (≈ 0.52 µM)
S. aureus DNA gyrase; IC50 S. aureus Gyrase Supercoiling (average), average of two replicate experiments
  IC50: 280 nM
S. aureus DNA gyrase; [9]
  IC50: 250 nM
S. aureus DNA gyrase; [10]
  IC50: 310 nM
[1]
  MIC range: 0.016 to 0.12 µg/mL
  MIC50: 0.12 µg/mL (≈ 0.25 µM)
  MIC90: 0.12 µg/mL (≈ 0.25 µM)
[2]
  MIC50: 0.03 µg/mL (≈ 0.0624 µM)
  MIC90: 0.25 µg/mL (≈ 0.52 µM)
  MIC: 0.03 to 0.25 µg/mL (≈ 0.0624 to 0.52 µM)
[3]
  MIC50: 1 µg/mL (≈ 2.08 µM)
  MIC90: 2 µg/mL (≈ 4.16 µM)
  MIC: 0.03 to 16 µg/mL (≈ 0.0624 to 33.3 µM)
S. aureus BAA-1720
  MIC: 0.5 µg/mL (≈ 1.04 µM)
P. aeruginosa ATCC 27853
  MIC: 2 µg/mL (≈ 4.16 µM)
H. influenzae ATCC 49766
  MIC: 0.25 µg/mL (≈ 0.52 µM)
E. coli ATCC 25922
  MIC: 0.5 µg/mL (≈ 1.04 µM)
E. coli 4SI
  MIC: 0.25 µg/mL (≈ 0.52 µM)
[4]
  MIC: 4 µg/mL (≈ 8.33 µM)
E. faecalis ATCC 29212
  MIC: 2 µg/mL (≈ 4.16 µM)
S. pneumoniae ATCC 49619
  MIC: 0.5 µg/mL (≈ 1.04 µM)
[5]
  IC50: 2250 nM
[5]; [11]
  IC50: 2200 nM
[5]; [12]
  IC50: 2300 nM
E. coli Topoisomerase IV; average of two replicate experiments, read-out: IC50 E. coli Topoisomerase IV decatenation (average)
  IC50: 1380 nM
E. coli Topoisomerase IV; replicate Assay 1, read-out: IC50 E. coli Topoisomerase IV decatenation, Assay 1
  IC50: 1350 nM
E. coli Topoisomerase IV; replicate Assay 2, read-out: IC50 E. coli Topoisomerase IV decatenation, Assay 2
  IC50: 1420 nM
Human Topoisomerase II; [13]
  IC50: 98000 nM
Human Topoisomerase II; [14]
  IC50: 96000 nM
Human Topoisomerase II; [15]
  IC50: 99000 nM
[6]
  MIC: 0.06 µg/mL (≈ 0.125 µM)
N. gonorrhoeae WHO N
  MIC: 0.06 µg/mL (≈ 0.125 µM)
N. gonorrhoeae WHO K
  MIC: 0.12 µg/mL (≈ 0.25 µM)
[7]
  MIC: ≤ 0.06 µg/mL
N. gonorrhoeae WHO L
  MIC: 0.12 µg/mL (≈ 0.25 µM)
E. coli TolC- mutant
  MIC: ≤ 0.016 µg/mL
E. coli DNA gyrase; average of two replicate experiments, read-out: IC50 E. coli Gyrase Supercoiling (average)
  IC50: 250 nM
E. coli DNA gyrase; replicate Assay 1, read-out: IC50 E. coli gyrase Supercoiling, Assay 1
  IC50: 340 nM
E. coli DNA gyrase; replicate Assay 2, read-out: IC50 E. coli gyrase Supercoiling, Assay 2
  IC50: 160 nM

## Cl.O=c1oc2ccc(F)cc2c2[nH]c(CN[C@H]3CC[C@H](n4c(=O)ccc5ccc(F)cc54)CC3)cc12 [Compound 6, 8-fluoro-2-({[trans-4-(7-fluoro-2-oxoquinolin-1(2H)-yl)cyclohexyl]amino}methyl)[1]benzopyrano[4,3-b]pyrrol-4(1H)-one hydrochloride]
S. aureus ATCC 29213; S. aureus ATCC 29213
  MIC fold lower than that of ciprofloxacin: approximately 10 fold
S. aureus ATCC 29213; [8]
  MIC: ≤ 0.06 µg/mL
S. aureus DNA gyrase; average of two replicate experiments, read-out: IC50 S. aureus Gyrase Supercoiling (average)
  IC50: 310 nM
S. aureus DNA gyrase; [9]
  IC50: 270 nM
S. aureus DNA gyrase; [10]
  IC50: 350 nM
[1]
  MIC range: 0.008 to 0.06 µg/mL
  MIC50: 0.03 µg/mL
  MIC90: 0.06 µg/mL
[2]
  MIC50: 0.12 µg/mL
  MIC90: 0.12 µg/mL
  MIC: 0.06 to 0.12 µg/mL
[3]
  MIC50: 0.25 µg/mL
  MIC90: 0.25 µg/mL
  MIC: 0.06 to 1 µg/mL
S. aureus BAA-1720
  MIC: ≤ 0.06 µg/mL
P. aeruginosa ATCC 27853
  MIC: 4 µg/mL
H. influenzae ATCC 49766
  MIC: 0.5 µg/mL
E. coli ATCC 25922
  MIC: 0.25 µg/mL
[4]
  MIC: 8 µg/mL
E. faecalis ATCC 29212
  MIC: 0.25 µg/mL
S. pneumoniae ATCC 49619
  MIC: 0.12 µg/mL
[5]
  IC50: 290 nM
[5]; [11]
  IC50: 310 nM
[5]; [12]
  IC50: 260 nM
E. coli Topoisomerase IV; IC50 E. coli Topoisomerase IV decatenation (average), average of two replicate experiments
  IC50: 250 nM
E. coli Topoisomerase IV; IC50 E. coli Topoisomerase IV decatenation, Assay 1, replicate Assay 1
  IC50: 270 nM
E. coli Topoisomerase IV; IC50 E. coli Topoisomerase IV decatenation, Assay 2, replicate Assay 2
  IC50: 220 nM
Human Topoisomerase II; [13]
  IC50: 10100 nM and 10000 nM
Human Topoisomerase II; [14]
  IC50: 13000 nM
Human Topoisomerase II; [15]
  IC50: 7300 nM
[6]
  MIC: 0.03 µg/mL
N. gonorrhoeae WHO N
  MIC: 0.03 µg/mL
N. gonorrhoeae WHO K
  MIC: 0.06 µg/mL
[7]
  MIC: 0.03 µg/mL
N. gonorrhoeae WHO L
  MIC: 0.03 µg/mL
E. coli TolC- mutant
  MIC: ≤ 0.016 µg/mL
E. coli DNA gyrase; IC50 E. coli Gyrase Supercoiling (average), average of two replicate experiments
  IC50: 130 nM
E. coli DNA gyrase; IC50 E. coli gyrase Supercoiling, Assay 1, replicate Assay 1
  IC50: 130 nM
E. coli DNA gyrase; IC50 E. coli gyrase Supercoiling, Assay 2, replicate Assay 2
  IC50: 120 nM
